The nature of data set [1]: Analytical RP-HPLC retention time (used as indication of hydrophobicity). In kind it is physicochemical. Conditions: analytical reverse phase HPLC, UV chromatogram; free and CF-labelled peptides.
Data set [2] can be described thus: Biodistribution of 67Ga-radiolabeled peptides. Details: species or system mouse. Conditions: female, CD1, mouse, in vivo, iv, 100 uCi, total radioactivity, Tissue distribution. How it is done:
All animal experiments were performed in compliance with national and EU legislation for good practices on laboratory animal science. The animals were housed in a temperature and humidity-controlled environment with a 12 h light/12 h dark schedule. Biodistribution of radiolabeled peptides was performed on 7 weeks old CD1 female mice.
Animals were intravenously injected into the tail vein with 100 µL of a 25 µM saline solution of the ^67Ga-peptide with a radioactivity around 100 µCi. The mice were euthanized by cervical dislocation at 2 min and 1 h after injection. The dose administered and the radioactivity in the euthanized animals was measured using a dose calibrator (Carpintec CRC-15W, Ramsey, USA). The difference between the radioactivity in the injected and the euthanized animals was assumed to be due to excretion. Brain and tissues of interest without previous perfusion were dissected, washed, and weighed, and their radioactivity was measured using a γ counter (Hidex AMG, Hidex, Turku, Finland). The uptake in the brain and tissues of interest was calculated and expressed as a percentage of injected radioactivity dose per gram of tissue (% ID/g).

We go through twelve molecules from PMC11131246, “Molecular determinants for brain targeting by peptides: a meta-analysis approach with experimental validation” (Fluids and Barriers of the CNS, 2024).

Residues, ends and D or L forms follow the SMILES beside them. *: point of attachment. NODAGA = O=C(O)CN1CCN(CC(=O)O)CCN(C(CCC(=O)*)C(=O)O)CC1

Turning to “CF-KKKKQPPKPKKPKTQEKKKKQPPKPKR-amide [CF-P1746c27, 5(6)-carboxyfluorescein-labelled P1746c27]”, the “HPLC tR” value in data set [1] came out at 4.23 min.

Regarding “CF-YTQDFNKFHTFPQTAIGVGAP-amide [CF-hCR(12–32), 5(6)-carboxyfluorescein-labelled hCR(12–32)]”, the “HPLC tR” value in data set [1] is 8.79 min.

Regarding “CF-KYKGAIIGNIK-amide [CF-A, 5(6)-carboxyfluorescein-labelled A]”, the “HPLC tR” value in data set [1] is given as 7.05 min.

“CF-RPKPQQFFGLM-amide [CF-SPA, 5(6)-carboxyfluorescein-labelled SPA]”: in data set [1], the “HPLC tR” value was 9.25 min.

Regarding “CF-NRPDSAQFWLHH-amide [CF-Peptide third, 5(6)-carboxyfluorescein-labelled Peptide third]”, in data set [1], the “HPLC tR” value came out at 8.01 min.

Turning to “CF-YKEATSTFTNITYRGT-amide [CF-Peptide b3-1, 5(6)-carboxyfluorescein-labelled Peptide b3-1]”, the “HPLC tR” value in data set [1] is on record as 8.63 min.

In the case of “CF-EEGRLYMRYYSPTTRRYG-amide [CF-CPP(II), 5(6)-carboxyfluorescein-labelled CPP(II)]”, the “HPLC tR” value in data set [1] was 7.95 min.

In the case of `CC[C@H](C)[C@H](NC(=O)[C@H](Cc1c[nH]cn1)NC(=O)CCC(C(=O)O)N1CCN(CC(=O)O)CCN(CC(=O)O)CC1)C(=O)N[C@@H](CCC(N)=O)C(=O)N[C@@H](CC(C)C)C(=O)N[C@@H](CO)C(=O)N1CCC[C@H]1C(=O)N[C@@H](Cc1ccccc1)C(=O)N[C@@H](CO)C(=O)N[C@@H](CCC(N)=O)C(=O)N[C@@H](CO)C(=O)N[C@@H](Cc1c[nH]c2ccccc12)C(=O)N[C@@H](CCCNC(=N)N)C(N)=O` (stereo partly drawn) [67Ga-BBBpS_5, metal not drawn] ({NODAGA}-HIQLSPFSQSWR-NH2), the tissue uptake (commonly the percentage of the injected dose found per gram of tissue) at 2 min in data set [2] (Blood) was found to be 10.7 ± 2.1 %ID/g; in data set [2] (Bone), 3.8 ± 0.5 %ID/g; in data set [2] (Brain (brain uptake)) it was 0.74 ± 0.01 %ID/g; in data set [2] (Heart) it was 3.8 ± 0.8 %ID/g; in data set [2] (Intestine), 2.2 ± 0.2 %ID/g; in data set [2] (Kidney) it was 22 ± 3.6 %ID/g. The tissue uptake at 2 min in data set [2] (Liver) was determined as 5.2 ± 1.1 %ID/g; in data set [2] (Lung) it was 7.8 ± 2.8 %ID/g; in data set [2] (Muscle), 3.1 ± 0.8 %ID/g; in data set [2] (Spleen) it was 2.2 ± 0.1 %ID/g; in data set [2] (Stomach), 2.6 %ID/g. Moreover, the tissue uptake at 1 h in data set [2] (Blood) amounted to 1.2 ± 0.3 %ID/g; in data set [2] (Bone), 0.6 ± 0.4 %ID/g; in data set [2] (Brain (brain uptake)) it was 0.05 ± 0.01 %ID/g; in data set [2] (Heart), 0.5 %ID/g; in data set [2] (Intestine), 0.4 ± 0.2 %ID/g; in data set [2] (Kidney) it was 1.1 ± 0.6 %ID/g. The tissue uptake at 1 h in data set [2] (Liver) is 1 ± 0.4 %ID/g; in data set [2] (Lung), 1.2 ± 0.2 %ID/g; in data set [2] (Muscle), 0.5 ± 0.2 %ID/g; in data set [2] (Spleen), 0.3 ± 0.1 %ID/g; in data set [2] (Stomach) it was 0.3 ± 0.4 %ID/g.

Turning to “CF-LKTLTETLKELTKTLTEL-amide [CF-KLA13, 5(6)-carboxyfluorescein-labelled KLA13]”, the “HPLC tR” value in data set [1] turned out to be 13.51 min.

With `CC[C@H](C)[C@H](NC(=O)[C@H](C)NC(=O)CNC(=O)[C@H](CCCCN)NC(=O)[C@H](Cc1ccc(O)cc1)NC(=O)[C@H](CCCCN)NC(=O)CCC(C(=O)O)N1CCN(CC(=O)O)CCN(CC(=O)O)CC1)C(=O)N[C@H](C(=O)NCC(=O)N[C@@H](CC(N)=O)C(=O)N[C@H](C(=O)N[C@@H](CCCCN)C(N)=O)[C@@H](C)CC)[C@@H](C)CC` (stereo partly drawn) [67Ga-BBBpS_1, metal not drawn] ({NODAGA}-KYKGAIIGNIK-NH2), the tissue uptake at 2 min in data set [2] (Blood) was 12.6 ± 2.1 %ID/g; in data set [2] (Bone) it was 3.4 ± 0.3 %ID/g; in data set [2] (Brain (brain uptake)) it was 0.66 ± 0.16 %ID/g; in data set [2] (Heart) it was 3.4 ± 1 %ID/g; in data set [2] (Intestine) it was 1.7 ± 0.3 %ID/g; in data set [2] (Kidney) it was 33.8 ± 3.8 %ID/g. The tissue uptake at 2 min came to 4.1 ± 0.8 %ID/g in data set [2] (Liver); 6.1 ± 0.7 %ID/g in data set [2] (Lung); 2.4 ± 0.2 %ID/g in data set [2] (Muscle); 2 ± 0.2 %ID/g in data set [2] (Spleen); 1.4 ± 0.5 %ID/g in data set [2] (Stomach). Also, the tissue uptake at 1 h in data set [2] (Blood) came out at 0.5 ± 0.3 %ID/g; in data set [2] (Bone) it was 0.3 ± 0.1 %ID/g; in data set [2] (Brain (brain uptake)) it was 0.04 ± 0.02 %ID/g; in data set [2] (Heart), 0.3 ± 0.1 %ID/g; in data set [2] (Intestine), 0.2 ± 0.1 %ID/g; in data set [2] (Kidney) it was 2.4 ± 1.8 %ID/g. Besides, the tissue uptake at 1 h in data set [2] (Liver) came to 0.3 ± 0.2 %ID/g; in data set [2] (Lung), 2.5 ± 0.3 %ID/g; in data set [2] (Muscle), 0.3 ± 0.1 %ID/g; in data set [2] (Spleen) it was 0.2 ± 0.1 %ID/g; in data set [2] (Stomach), 0.1 %ID/g.

As for `CC[C@H](C)[C@H](NC(=O)[C@H](C)NC(=O)CNC(=O)[C@H](CO)NC(=O)[C@H](CCCNC(=N)N)NC(=O)[C@H](Cc1ccc(O)cc1)NC(=O)[C@H](CCCCN)NC(=O)CCC(C(=O)O)N1CCN(CC(=O)O)CCN(CC(=O)O)CC1)C(=O)N[C@H](C(=O)N[C@H](C(=O)NCC(=O)N[C@@H](Cc1ccc(O)cc1)C(N)=O)[C@@H](C)CC)[C@@H](C)O` (stereo partly drawn) [67Ga-BBBpS_2, metal not drawn] ({NODAGA}-KYRSGAITIGY-NH2), the tissue uptake at 2 min in data set [2] (Blood) was determined as 13.4 ± 3.8 %ID/g; in data set [2] (Bone), 3.1 ± 0.1 %ID/g; in data set [2] (Brain (brain uptake)), 0.52 ± 0.23 %ID/g; in data set [2] (Heart) it was 3.1 ± 0.7 %ID/g; in data set [2] (Intestine) it was 1.5 ± 0.2 %ID/g; in data set [2] (Kidney), 18.1 ± 2.1 %ID/g. In addition, the tissue uptake at 2 min in data set [2] (Liver) was 3.5 ± 1.2 %ID/g; in data set [2] (Lung) it was 6 ± 1.2 %ID/g; in data set [2] (Muscle), 2 ± 0.4 %ID/g; in data set [2] (Spleen), 1.9 ± 0.6 %ID/g; in data set [2] (Stomach), 1 ± 0.1 %ID/g. The tissue uptake at 1 h in data set [2] (Blood) was 1.4 ± 0.9 %ID/g; in data set [2] (Bone) it was 0.8 ± 0.5 %ID/g; in data set [2] (Brain (brain uptake)) it was 0.09 ± 0.03 %ID/g; in data set [2] (Heart), 0.8 ± 0.1 %ID/g; in data set [2] (Intestine), 0.4 %ID/g; in data set [2] (Kidney) it was 1.4 ± 0.6 %ID/g. Further, the tissue uptake at 1 h in data set [2] (Liver) is 0.6 ± 0.2 %ID/g; in data set [2] (Lung), 1.7 ± 0.4 %ID/g; in data set [2] (Muscle), 0.7 ± 0.1 %ID/g; in data set [2] (Spleen), 0.5 ± 0.2 %ID/g; in data set [2] (Stomach), 0.2 ± 0.1 %ID/g.

As to `CC(C)C[C@H](NC(=O)[C@H](Cc1c[nH]c2ccccc12)NC(=O)[C@H](Cc1ccccc1)NC(=O)[C@H](CCC(N)=O)NC(=O)[C@H](C)NC(=O)[C@H](CO)NC(=O)[C@H](CC(=O)O)NC(=O)[C@@H]1CCCN1C(=O)[C@H](CCCNC(=N)N)NC(=O)[C@H](CC(N)=O)NC(=O)CCC(C(=O)O)N1CCN(CC(=O)O)CCN(CC(=O)O)CC1)C(=O)N[C@@H](Cc1c[nH]cn1)C(=O)N[C@@H](Cc1c[nH]cn1)C(N)=O` (stereo partly drawn) [67Ga-BBBpS_9, metal not drawn] ({NODAGA}-NRPDSAQFWLHH-NH2), the tissue uptake at 2 min was found to be 11.6 ± 1.5 %ID/g in data set [2] (Blood); 3.4 ± 0.3 %ID/g in data set [2] (Bone); 0.61 ± 0.11 %ID/g in data set [2] (Brain (brain uptake)); 3.3 ± 0.1 %ID/g in data set [2] (Heart); 1.9 ± 0.2 %ID/g in data set [2] (Intestine); 30 ± 3.7 %ID/g in data set [2] (Kidney). Also, the tissue uptake at 2 min in data set [2] (Liver) is 4.7 ± 0.4 %ID/g; in data set [2] (Lung), 5.4 ± 0.6 %ID/g; in data set [2] (Muscle), 2.6 ± 0.3 %ID/g; in data set [2] (Spleen), 2.6 ± 0.3 %ID/g; in data set [2] (Stomach), 1.5 ± 0.2 %ID/g. The tissue uptake at 1 h is 0.8 ± 0.4 %ID/g in data set [2] (Blood); 0.5 ± 0.1 %ID/g in data set [2] (Bone); 0.05 ± 0.01 %ID/g in data set [2] (Brain (brain uptake)); 0.3 %ID/g in data set [2] (Heart); 0.2 %ID/g in data set [2] (Intestine); 3.1 ± 0.3 %ID/g in data set [2] (Kidney). Moreover, the tissue uptake at 1 h in data set [2] (Liver) was 2.6 ± 0.3 %ID/g; in data set [2] (Lung), 0.7 ± 0.1 %ID/g; in data set [2] (Muscle), 0.2 ± 0.1 %ID/g; in data set [2] (Spleen) it was 0.9 ± 0.2 %ID/g; in data set [2] (Stomach), 0.3 ± 0.1 %ID/g.
